Experiment [1] deals with genotype 3a transient HCV replicon (S52) in Huh-7-derived cells. As to the kind of experiment: Transient-transfected HCV replicon, genotype 3a wild type. It is filed as cell-based. The note with it: Hepatitis C virus; transient-transfected replicon genotype 3a wild type, 72 h; read-out: EC50 3A WT. On the technique in general: A replicon is a self-replicating genome or part of one, used to study replication in cells.

Another experiment has as its target T1, NS3 genotype 1b protease (Hepatitis C virus genotype 1b, UniProt Q9WMX2, E1202G).
T1 construct: Purified NS3 protease domain (amino acids 1-181) of the genotype 1b and 3a virus were generated as above; K3 hexahistidine tag (N); rTEV protease cleavage site (N); made in house; host or cells: E. coli BL21AI
As to the kind of experiment: Ki determination, NS3 protease genotype 1b (fluorogenic depsipeptide substrate). The note with it: NS3 protease domain genotype 1b, NS4A peptide. Format: biochemical. Put shortly:
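NS3 protease domain (aa 1-181), 50 pM (1b) or 200 pM (3a), with 20 μM NS4A peptide, pre-incubated 1 h with inhibitor (100 nM–5 pM); 4 μM (1b) or 2 μM (3a) FRET depsipeptide substrate, room temperature, pH-unspecified HEPES buffer with 40% glycerol, 10% DMSO. Steady-state rates at 90–120 min (ex 340/em 490); Morrison fit gave Ki^app, corrected to Ki via substrate/Km.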

Experiment [2] has as its system NS3/4a protease inhibitor resistant variant R155K in genotype 1a transient HCV replicon. In words: Transient-transfected HCV replicon, genotype 1a R155K. To be noted: Hepatitis C virus, 72 h, read-out: EC50 1A R155K. Format: cell-based.
Experiment [3] concerns genotype 1a stable HCV replicon (H77) in Huh-7-derived cells. As to the kind of experiment: Stable subgenomic HCV replicon, genotype 1a, Renilla luciferase. To be noted: Hepatitis C virus, stable replicon genotype 1a, 72 h, read-out: EC50 1A RLUC. Format: cell-based. In outline:
(§1)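 Replicons carry hRLuc-neo, EMCV IRES and NS3-NS5B with adaptive mutations: 1a H77 P1496L/S2204I, 1b Con1 E1202G/T1280I/K1846T, 4a ED43 Q1691R/S2204I. EC50 came from non-linear regression versus DMSO and a triple-inhibitor full-inhibition control.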

Experiment [4] concerns genotype 4a stable HCV replicon (ED43) in Huh-7-derived cells. In words: Stable subgenomic HCV replicon, genotype 4a, Renilla luciferase. To be noted: Hepatitis C virus, 72 h, read-out: EC50 4A RLUC. Format: cell-based. Put shortly:
as §1

For experiment [5], the system named is genotype 1a (H77) wild-type transient HCV replicon in Huh-7-derived cells. In words: Transient-transfected HCV replicon, genotype 1a wild type. Format: cell-based. The note with it: Hepatitis C virus; transient-transfected replicon genotype 1a wild type, 72 h; read-out: EC50 1A WT.
Experiment [6] has as its system genotype 1b wild-type transient HCV replicon in Huh-7-derived cells. As to the kind of experiment: Transient-transfected HCV replicon, genotype 1b wild type. It is filed as cell-based. To be noted: Hepatitis C virus; transient-transfected replicon genotype 1b wild type, 72 h; read-out: EC50 1B WT.

The results in this text go back to US9617310B2 (priority 2013, dated 2017).

T1 sequence (Q9WMX2 1027-1207 E1202G, other chains not shown): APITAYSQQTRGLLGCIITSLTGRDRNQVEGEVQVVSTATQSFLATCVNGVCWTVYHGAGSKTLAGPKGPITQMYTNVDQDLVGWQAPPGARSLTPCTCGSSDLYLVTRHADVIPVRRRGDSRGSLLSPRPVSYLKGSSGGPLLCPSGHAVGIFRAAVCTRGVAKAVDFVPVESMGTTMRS

In the case of `CC(C)(C)[C@@H]1NC(=O)O[C@@H]2C[C@@H]3C[C@@H]3[C@H]2CC/C=C/C(F)(F)c2nc3ccc(C#N)cc3nc2O[C@@H]2C[C@@H](C(=O)N[C@]3(C(=O)NS(=O)(=O)C4(C)CC4)C[C@H]3C(F)F)N(C2)C1=O` [Example 13, (1aS,2aR,6S,9S,11R,20E,23aR,23bS)-6-tert-butyl-15-cyano-N-[(1R,2R)-2-(difluoromethyl)-1-{[(1-methylcyclopropyl)sulfonyl]carbamoyl}cyclopropyl]-19,19-difluoro-4,7-dioxo-1a,2,2a,4,5,6,7,10,11,19,22,23,23a,23b-tetradecahydro-1H,9H-8,11-methanocyclopropa[4′,5′]cyclopenta[1′,2′18,19][1,10,3,6]dioxadiazacyclononadecino[11,12-b]quinoxaline-9-carboxamide], the EC50 amounted to 2.8 nM in experiment [1]; 2 nM in experiment [2]; 3.4 nM in experiment [3]; 3.6 nM in experiment [4]; 2.8 nM in experiment [5]; 0.99 nM in experiment [6]. For the same compound, on NS3 genotype 1b protease, the Ki was found to be 0.02 nM.
As for `CC(C)(C)[C@@H]1NC(=O)O[C@@H]2C[C@@H]3C[C@@H]3[C@H]2CCCCC(F)(F)c2nc3ccc(C#N)cc3nc2O[C@@H]2C[C@@H](C(=O)N[C@]3(C(=O)NS(=O)(=O)C4(C)CC4)C[C@H]3C(F)F)N(C2)C1=O` [Example 14, (1aS,2aR,6S,9S,11R,23aR,23bS)-6-tert-butyl-15-cyano-N-[(1R,2R)-2-(difluoromethyl)-1-{[(1-methylcyclopropyl)sulfonyl]carbamoyl}cyclopropyl]-19,19-difluoro-4,7-dioxo-1a,2,2a,4,5,6,7,10,11,19,20,21,22,23,23a,23b-hexadecahydro-1H,9H-8,11-methanocyclopropa[4′,5′]cyclopenta [1′,2′:18,19][1,10,3,6]dioxadiazacyclononadecino[11,12-b]quinoxaline-9-carboxamide], the EC50 is 1.4 nM in experiment [1]; 0.69 nM in experiment [2]; 1.4 nM in experiment [3]; 1.4 nM in experiment [4]; 0.9 nM in experiment [5]; 0.55 nM in experiment [6]. This compound also showed a Ki at NS3 genotype 1b protease of 0.01 nM.
Consider `CC(C)(C)[C@@H]1NC(=O)O[C@@H]2C[C@@H]3C[C@@H]3[C@H]2CCCCC(F)(F)c2nc3ccc(OC(F)F)cc3nc2O[C@@H]2C[C@@H](C(=O)N[C@]3(C(=O)NS(=O)(=O)C4CC4)C[C@H]3C(F)F)N(C2)C1=O` [Example 16, (1aS,2aR,6S,9S,11R,23aR,23bS)-6-tert-butyl-N-[(1R,2R)-1-[(cyclopropylsulfonyl)carbamoyl]-2-(difluoromethyl)cyclopropyl]-15-(difluoromethoxy)-19,19-difluoro-4,7-dioxo-1a,2,2a,4,5,6,7,10,11,19,20,21,22,23,23a,23b-hexadecahydro-1H,9H-8,11-methanocyclopropa[4′,5′]cyclopenta [1′,2′:18,19][1,10,3,6]dioxadiazacyclononadecino[11,12-b]quinoxaline-9-carboxamide], for which the EC50 in experiment [1] amounted to 50 nM; in experiment [2] it was 2 nM; in experiment [3] it was 3.8 nM; in experiment [4], 2.3 nM; in experiment [5] it was 1.8 nM; in experiment [6], 1.6 nM. Also, the affinity on NS3 genotype 1b protease, expressed as Ki, was 0.03 nM.
Turning to `CC(C)(C)[C@@H]1NC(=O)O[C@@H]2C[C@@H]3C[C@@H]3[C@H]2CCCCC(F)(F)c2nc3ccccc3nc2O[C@@H]2C[C@@H](C(=O)N[C@]3(C(=O)NS(=O)(=O)C4(C)CC4)C[C@H]3C(F)F)N(C2)C1=O` [Example 17], the EC50 in experiment [1] was 7.1 nM; in experiment [2], 2.9 nM; in experiment [3], 5.8 nM; in experiment [4] it was 4.8 nM; in experiment [5] it was 3.3 nM; in experiment [6], 1.3 nM. The affinity on NS3 genotype 1b protease, expressed as Ki, was 0.01 nM.
Regarding `CC(C)(C)[C@@H]1NC(=O)O[C@@H]2C[C@@H]3C[C@@H]3[C@H]2CCCCC(F)(F)c2nc3ccccc3nc2O[C@@H]2C[C@@H](C(=O)N[C@]3(C(=O)NS(=O)(=O)C4CC4)C[C@H]3C(F)F)N(C2)C1=O` [Example 18], the EC50 in experiment [1] came out at 4.9 nM; in experiment [2] it was 2.6 nM; in experiment [3], 4.8 nM; in experiment [4] it was 4.2 nM; in experiment [5], 3.6 nM; in experiment [6] it was 1.6 nM. The compound further gave a Ki at NS3 genotype 1b protease of 0.01 nM.
As for `CC(C)(C)[C@@H]1NC(=O)O[C@@H]2C[C@@H]3C[C@@H]3[C@H]2CCCCCc2nc3ccc(Cl)cc3nc2O[C@@H]2C[C@@H](C(=O)N[C@]3(C(=O)NS(=O)(=O)C4CC4)C[C@H]3C(F)F)N(C2)C1=O` [Example 19, (1aS,2aR,6S,9S,11R,23aR,23bS)-6-tert-butyl-15-chloro-N-[(1R,2R)-1-[(cyclopropylsulfonyl)carbamoyl]-2-(difluoromethyl)cyclopropyl]-4,7-dioxo-1a,2,2a,4,5,6,7,10,11,19,20,21,22,23,23a, 23b-hexadecahydro-1H,9H-8,11-methanocyclopropa[4′,5′]cyclopenta[1′,2′:18,19][1,10,3,6]dioxadiazacyclononadecino[11,12-b]quinoxaline-9-carboxamide], the concentration for a half-maximal effect (EC50) in experiment [1] came to 17 nM; in experiment [2], 1.9 nM; in experiment [3], 1.4 nM; in experiment [4] it was 1.8 nM; in experiment [5], 1.3 nM; in experiment [6], 1.1 nM. This compound also returned a Ki on NS3 genotype 1b protease of 0.02 nM.
With `COc1ccc2nc3c(nc2c1)O[C@@H]1C[C@@H](C(=O)N[C@]2(C(=O)NS(=O)(=O)C4(C)CC4)C[C@H]2CC(F)F)N(C1)C(=O)[C@H](C(C)(C)C)NC(=O)O[C@@H]1C[C@@H]2C[C@@H]2[C@H]1CCCCC3(F)F` [Example 20, (1aS,2aR,6S,9S,11R,23aR,23bS)-6-tert-butyl-N-[(1R,2S)-2-(2,2-difluoroethyl)-1-{[(1-methylcyclopropyl)sulfonyl]carbamoyl}cyclopropyl]-19,19-difluoro-15-methoxy-4,7-dioxo-1a,2,2a,4,5,6,7,10,11,19,20,21,22,23,23a,23b-hexadecahydro-1H,9H-8,11-methanocyclopropa[4′,5′]cyclopenta[1′,2′:18,19][1,10,3,6]dioxadiazacyclononadecino[11,12-b]quinoxaline-9-carboxamide], the 50% effective concentration (EC50) worked out at 12 nM in experiment [1]; 5 nM in experiment [2]; 6 nM in experiment [3]; 5 nM in experiment [4]; 5.2 nM in experiment [5]; 4.1 nM in experiment [6]. Moreover, on NS3 genotype 1b protease, the Ki amounted to 0.04 nM.
As to `COc1ccc2cc3c(nc2c1)O[C@@H]1C[C@@H](C(=O)N[C@]2(C(=O)NS(=O)(=O)C4CC4)C[C@H]2C(F)F)N(C1)C(=O)[C@H](C(C)(C)C)NC(=O)O[C@@H]1C[C@@H]2C[C@@H]2[C@H]1CCCCC3` [Example 21, (1aS,2aR,6S,9S,11R,23aR,23bS)-6-tert-butyl-N-[(1R,2R)-1-[(cyclopropylsulfonyl)carbamoyl]-2-(difluoromethyl)cyclopropyl]-15-methoxy-4,7-dioxo-1a,2,2a,4,5,6,7,10,11,19,20,21,22,23,23a,23b-hexadecahydro-1H,9H-8,11-methanocyclopropa[4′,5′]cyclopenta[1′,2′:18,19][1,10,3,6]dioxadiazacyclononadecino[11,12-b]quinoline-9-carboxamide], the EC50 amounted to 36 nM in experiment [1]; 1.4 nM in experiment [2]; 1.6 nM in experiment [3]; 1.4 nM in experiment [4]; 1.5 nM in experiment [5]; 0.61 nM in experiment [6]. The compound also displayed a Ki on NS3 genotype 1b protease of 0.02 nM.

What is called EC50 is the concentration at which the effect is half-maximal. In general, Ki refers to the equilibrium dissociation constant of an inhibitor or competing ligand from its target.
